Patent US6624163B2, “Benzothiazole derivatives” (Hoffman-La Roche Inc., priority 2001, dated 2003)

Molecular target: T1, human adenosine A2A receptor (Homo sapiens, UniProt P29274)
T1 construct: expressed in transfected cells; host or cells: CHO cells, semliki forest virus expression system; membrane preparation
Assay: [3H]-SCH-58261 binding assay, human adenosine A2A receptor expressed in CHO cell membranes (SPA)
Conditions: [3H]-SCH-58261 (1 nM) displacement; recombinant receptor in CHO cell membranes; Ki by Cheng-Prussoff from IC50; read-out: hA2 (pKi) (converted)
Description: Human Adenosine A2A Receptor
The human adenosine A2A receptor was recombinantly expressed in chinese hamster ovary (CHO) cells using the semliki forest virus expression system. Cells were harvested, washed twice by centrifugation, homogenised and again washed by centrifugation. The final washed membrane pellet was suspended in a Tris (50 mM) buffer containing 120 mM NaCl, 5 mM KCl, 2 mM CaCl2 and 10 mM MgCl2 (pH 7.4) (buffer A). The [^3H]-SCH-58261 (Dionisotti et al., 1997, Br J Pharmacol 121, 353; 1 nM) binding assay was carried out in 96-well plates in the presence of 2.5 μg of membrane protein, 0.5 mg of Ysi-poly-1-lysine SPA beads and 0.1 U adenosine deaminase in a final volume of 200 μl of buffer A. Non-specific binding was defined using xanthine amine congener (XAC; 2 μM). Compounds were tested at 10 concentrations from 10 μM −0.3 nM. All assays were conducted in duplicate and repeated at least two times. Assay plates were incubated for 1 hour at room temperature before centrifugation and then bound ligand determined using a Packard Topcount scintillation counter. IC50 values were calculated using a non-linear curve fitting program and Ki values calculated using the Cheng-Prussoff equation.

T1 sequence (P29274 whole entry): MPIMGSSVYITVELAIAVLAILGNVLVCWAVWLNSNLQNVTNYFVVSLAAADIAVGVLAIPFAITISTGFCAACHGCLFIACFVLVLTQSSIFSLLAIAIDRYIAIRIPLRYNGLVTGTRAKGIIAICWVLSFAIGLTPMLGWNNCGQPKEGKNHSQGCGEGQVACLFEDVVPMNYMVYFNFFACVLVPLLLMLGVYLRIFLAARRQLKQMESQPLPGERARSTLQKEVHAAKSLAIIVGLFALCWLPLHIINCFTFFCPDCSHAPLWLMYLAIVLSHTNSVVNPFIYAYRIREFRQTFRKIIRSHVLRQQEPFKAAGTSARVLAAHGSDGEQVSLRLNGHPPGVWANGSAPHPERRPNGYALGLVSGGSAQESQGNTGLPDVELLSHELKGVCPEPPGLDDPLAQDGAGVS

Row | SMILES | Ki [nM]
1 | CCC(=O)N(C)Cc1ccc(C(=O)Nc2nc3c(OC)ccc(N4CCOCC4)c3s2)cc1 [Example 6, N-(4-Methoxy-7-morpholin-4-yl-benzothiazol-2-yl)-4-[(methyl-propionyl-amino)-methyl]-benzamide] | 0.631
2 | COCC(=O)N(C)Cc1ccc(C(=O)Nc2nc3c(OC)ccc(N4CCOCC4)c3s2)cc1 [Example 2, 4-[(Methoxyacetyl-methyl-amino)-methyl]-N-(4-methoxy-7-morpholin-4-yl-benzothiazol-2-yl)-benzamide] | 1.26
3 | CCC(=O)NCc1ccc(C(=O)Nc2nc3c(OC)ccc(N4CCOCC4)c3s2)cc1 [Example 7, N-(4-Methoxy-7-morpholin-4-yl-benzothiazol-2-yl)-4-(propionylamino-methyl)-benzamide] | 1
4 | COc1ccc(N2CCOCC2)c2sc(NC(=O)c3ccc(CN(C)C(=O)C4CC4)cc3)nc12 [Example 4, 4-[(Cyclopropanecarbonyl-methyl-amino)-methyl]-N-(4-methoxy-7-morpholin-4-yl-benzothiazol-2-yl)-benzamide] | 0.631
5 | COCC(=O)NCc1ccc(C(=O)Nc2nc3c(OC)ccc(N4CCOCC4)c3s2)cc1 [Example 1, 4-[(2-Methoxy-acetylamino)-methyl]-N-(4-methoxy-7-morpholin-4-yl-benzothiazol-2-yl)-benzamide] | 0.794
6 | COc1ccc(N2CCOCC2)c2sc(NC(=O)c3ccc(CN(C)C(=O)C4CCC4)cc3)nc12 [Example 5, 4-[(Cyclobutanecarbonyl-methyl-amino)-methyl]-N-(4-methoxy-7-morpholin-4-yl-benzothiazol-2-yl)-benzamide] | 0.794

Second part, the compound after the results:

Row | Ki [nM] | SMILES
7 | 1.26 | CCC(=O)N(CC)Cc1ccc(C(=O)Nc2nc3c(OC)ccc(N4CCOCC4)c3s2)cc1 [Example 14, 4-[(Ethyl-propionyl-amino)-methyl]-N-(4-methoxy-7-morpholin-4-yl-benzothiazol-2-yl)-benzamide]
8 | 1.58 | COc1ccc(N2CCOCC2)c2sc(NC(=O)c3ccc(CN(C)C(=O)CN4CCCC4)cc3)nc12 [Example 19, N-(4-Methoxy-7-morpholin-4-yl-benzothiazol-2-yl)-4-{[methyl-(pyrrolidin-1-yl-acetyl)-amino]-methyl}-benzamide]
9 | 1.26 | COc1ccc(N2CCOCC2)c2sc(NC(=O)c3ccc(CN(C)C(=O)CN(C)C)cc3)nc12 [Example 15, 4-[(Dimethylaminoacetyl-methyl-amino)-methyl]-N-(4-methoxy-7-morpholin-4-yl-benzothiazol-2-yl)-benzamide]
10 | 1 | COc1ccc(N2CCOCC2)c2sc(NC(=O)c3ccc(CNC(=O)C4CC4)cc3)nc12 [Example 9, 4-[(Cyclopropanecarbonyl-amino)-methyl]-N-(4-methoxy-7-morpholin-4-yl-benzothiazol-2-yl)-benzamide]
11 | 1 | COc1ccc(N2CCOCC2)c2sc(NC(=O)c3ccc(CN(C)C(C)=O)cc3)nc12 [Example 10, 4-[(Acetyl-methyl-amino)-methyl]-N-(4-methoxy-7-morpholin-4-yl-benzothiazol-2-yl)-benzamide]
12 | 0.501 | COc1ccc(N2CCOCC2)c2sc(NC(=O)c3ccc(CNC(=O)C4CCC4)cc3)nc12 [Example 11, 4-[(Cyclobutanecarbonyl-amino)-methyl]-N-(4-methoxy-7-morpholin-4-yl-benzothiazol-2-yl)-benzamide]
13 | 0.794 | COc1ccc(N2CCOCC2)c2sc(NC(=O)c3ccc(CNC(C)=O)cc3)nc12 [Example 12, 4-(Acetylamino-methyl)-N-(4-methoxy-7-morpholin-4-yl-benzothiazol-2-yl)-benzamide]

Test system: not given
Assay: not given
Conditions: not given

Row | melting point [°C] | SMILES
14 | 114 to 116 | COc1ccc(N2CCOCC2)c2sc(NC(=O)c3ccc(CN(C)C(=O)CN4CCCC4)cc3)nc12 [Example 19, N-(4-Methoxy-7-morpholin-4-yl-benzothiazol-2-yl)-4-{[methyl-(pyrrolidin-1-yl-acetyl)-amino]-methyl}-benzamide]
15 | 171 to 173 | COCCN(C)CC(=O)N(C)Cc1ccc(C(=O)Nc2nc3c(OC)ccc(N4CCOCC4)c3s2)cc1 [Example 18, 4-[({[(2-Methoxy-ethyl)-methyl-amino]-acetyl}-methyl-amino)-methyl]-N-(4-methoxy-7-morpholin-4-yl-benzothiazol-2-yl)-benzamide]
